The NIST ThermoML archive (doi:10.1016/j.jct.2015.08.027)
Numbers after ± are expanded uncertainties.

Assays:
[1] = refractive index (Na D-line) (dimensionless); conditions: 101.33 kPa, Liquid, Standard Abbe refractometry
[2] = 101.33 kPa, Liquid, Vibrating tube method
[3] = refractive index (Na D-line) (dimensionless); wn = mass fraction of the nth substance listed; conditions: 81.5 kPa, Liquid, Standard Abbe refractometry

SMILES | refractive index ([1]; 293.2 K) | refractive index ([1]; 298.2 K) | refractive index ([1]; 303.2 K) | mass density ([2]; 293.2 K) | mass density ([2]; 298.2 K) | mass density ([2]; 303.2 K) | refractive index ([3]; 293.2 K, w2 = 0.0142) | refractive index ([3]; 293.2 K, w2 = 0.993) | refractive index ([3]; 298.2 K, w2 = 0.0161) | refractive index ([3]; 298.2 K, w2 = 0.9924) | refractive index ([3]; 303.2 K, w2 = 0.0164) | refractive index ([3]; 303.2 K, w2 = 0.9914)
CCCCCCn1cc[n+](C)c1.F[P-](F)(F)(F)(F)F [1-hexyl-3-methylimidazolium hexafluorophosphate] | 1.4176 ± 0.00053 | 1.4164 ± 0.00053 | 1.41515 ± 0.00053 | 1294.91 ± 2.6 kg/m3 | 1290.88 ± 2.6 kg/m3 | 1286.85 ± 2.6 kg/m3 | – | – | – | – | – | –
CCCCCCn1cc[n+](C)c1.F[P-](F)(F)(F)(F)F [1-hexyl-3-methylimidazolium hexafluorophosphate] + O | – | – | – | – | – | – | 1.4164 ± 0.001 | 1.3334 ± 0.00077 | 1.41525 ± 0.00099 | 1.3332 ± 0.0008 | 1.4135 ± 0.00098 | 1.33345 ± 0.00086
CC(C)=O [acetone] | 1.3588 ± 0.00051 | 1.35575 ± 0.00051 | 1.35265 ± 0.00051 | 790.66 ± 1.6 kg/m3 | 784.4 ± 1.6 kg/m3 | 778.7 ± 1.6 kg/m3 | – | – | – | – | – | –
O [water] | 1.33305 ± 0.00049 | 1.3325 ± 0.00049 | 1.33195 ± 0.00049 | – | – | – | – | – | – | – | – | –
